Experimental data: PubChem BioAssay (NCI)
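The compound was tested at five concentrations on cells cultured in 96-well plates, with a 48-hour exposure period. GI50 is the concentration that inhibits growth by half. TGI marks complete inhibition of growth.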

Experiments:
Experiment in all cases: inhibition of tumour cell growth, NCI panel, 48 h
[1] = tested on: MALME-3M melanoma
[2] = tested on: SNB-75 CNS
[3] = tested on: HOP-92 NSCLC
[4] = tested on: MCF7 breast
[5] = tested on: HCC-2998 colon
[6] = tested on: SK-OV-3 ovarian
[7] = tested on: SK-MEL-5 melanoma
[8] = tested on: SF-539 CNS
[9] = tested on: A498 renal

SMILES	GI50 [1] [µM]	TGI [1] [µM]	GI50 [2] [µM]	TGI [2] [µM]	GI50 [3] [µM]	TGI [3] [µM]	GI50 [4] [µM]	TGI [4] [µM]	GI50 [5] [µM]	TGI [5] [µM]	GI50 [6] [µM]	TGI [6] [µM]	GI50 [7] [µM]	TGI [7] [µM]	TGI [8] [µM]	GI50 [9] [µM]	TGI [9] [µM]	GI50 [8] [µM]
O=C1c2ccccc2-c2c1c1ccc([N+](=O)[O-])cc1c(=O)n2CCN1CCOCC1	> 100	> 100	35.5	> 100	26.2	> 100	43	> 100	> 100	> 100	> 100	> 100	> 100	> 100				
CC(C)(C)CC(C)(C)c1cc2c(O)c(c1)Cc1cc(C(C)(C)CC(C)(C)C)cc(c1O)Cc1cc(C(C)(C)CC(C)(C)C)cc(c1O)Cc1cc(C(C)(C)CC(C)(C)C)cc(c1O)Cc1cc(C(C)(C)CC(C)(C)C)cc(c1O)Cc1cc(C(C)(C)CC(C)(C)C)cc(c1O)Cc1cc(C(C)(C)CC(C)(C)C)cc(c1O)Cc1cc(C(C)(C)CC(C)(C)C)cc(c1O)C2		> 100		> 100		> 100				> 100				> 100	> 100			
CC(C)CCCC(C)[C@H]1CCC2C3CC=C4C[C@@H](OC(=O)CC(CC(=O)[O-])C(=O)[O-])CC[C@]4(C)C3CC[C@@]21C.N.N.[Pt+4] (some centres undefined)			> 100	> 100	> 100	> 100							> 100	> 100	> 100	> 100	> 100	> 100
O=C(/C=C/c1ccco1)N1CCN(Cc2ccccc2)CC1				> 100		> 100				> 100		> 100		> 100	> 100		> 100	
CCOc1ccc2c(c1)[n+]([O-])c(-c1ccc([N+](=O)[O-])cc1)c(N)[n+]2[O-]		> 100		> 100		> 100						> 100		> 100	> 100		> 100	
COc1cc2ccnc(-c3n[nH]c4cc(OC)c(OC)cc34)c2cc1OC		> 100		> 100		> 100				> 100		> 100		> 100	> 100		> 100	
CCN(CC)CCOc1ccccc1-n1c(C)ccc1-c1ccccc1	19.2	36.6	10.3	22.4	12.6	32.8	13	26.7	13.9	28.5	17.3	31.4	12.8	25.9	31	14.5	32	16.1
O=CCC(O)C(O)C(O)CO (centres undefined)	> 100	> 100			1.74	> 100	> 100	> 100	> 100	> 100	> 100	> 100	> 100	> 100				
CC(C)(C)c1cc(C#N)c2c(c1)C(=O)OC2(c1ccccc1)c1ccccc1C#N (centres undefined)		> 100		> 100								> 100			> 100		> 100	
O=C(Cc1ccccc1)N/N=C(/c1nc2ccc([N+](=O)[O-])cc2[nH]c1=O)C(O)c1ccco1 (centres undefined)		> 100		> 100		> 100				> 100		> 100		> 100	> 100		> 100	
CSc1ccc(NC(=O)CCl)cc1				6.23		8.88		> 10		7.19		> 10		3.63	> 10			
OCC(O)C(OC1OC(CO)C(O)C(O)C1O)c1nn(-c2ccc(Cl)cc2)c2nc3cc(Cl)c(Cl)cc3nc12 (centres undefined)		> 100		> 100						> 100		> 100			> 100		> 100	
CC(C(=O)c1ccc(O)cc1)C1(O)C(=O)Nc2c(Cl)cc(Cl)cc21 (centres undefined)		> 100		> 100		> 100				> 100		> 100		31.4	> 100		> 85.3	
[N-]=[N+]=Nc1nnc(CCCCc2nnc(N=[N+]=[N-])o2)o1		> 100		> 100		> 100				> 100		> 100		> 100	> 100		> 100	
COc1ccccc1N1CCN(CC(O)Cn2c(=O)c3c(OC)nc(C)cc3c(=O)n2-c2ccccc2)CC1 (centres undefined)	> 100	> 100	14.8	37.6	15.7	36	> 100	> 100	> 100	> 100	23.5	> 100	46.2	> 100	> 100	23.8	98.2	32.6
CC/C(=N/O)C(C)C(=O)CCC(=O)Nc1ccc(Cl)cc1 (centres undefined)		> 100		> 100						> 100		> 100		> 100	> 100		> 100	
C=CCC(O)c1cc(OC)ccc1OC (centres undefined)		> 100		> 100		> 100				> 100		> 100		> 100	> 100			

SMILES	GI50 [1] [µM]	TGI [1] [µM]	GI50 [2] [µM]	TGI [2] [µM]	GI50 [3] [µM]	TGI [3] [µM]	GI50 [4] [µM]	TGI [4] [µM]	GI50 [5] [µM]	TGI [5] [µM]	GI50 [6] [µM]	TGI [6] [µM]	GI50 [7] [µM]	TGI [7] [µM]	TGI [8] [µM]	GI50 [9] [µM]	TGI [9] [µM]	GI50 [8] [µM]
COC(=O)c1ccc(N/C=C(/C#N)c2ccsc2)cc1		36.2		18.9						44.5					32.3		15.7	
CNC(=O)NCCCCC(NC(=O)OCc1ccccc1)C(=O)OCc1ccccc1 (centres undefined)		47		41.6		89.2				36.9		> 100		> 100	38.5		> 100	
CC1=C(C(=O)NCc2ccccc2)C(c2ccc(N(C)C)cc2)C(C(=O)NCc2ccccc2)=C(C)N1		> 100		> 100		> 100				> 100		> 100		> 100	> 100		> 100	
NC1=CC(=O)C(=O)c2ccccc21	11	25.7	13.8	27.1	30	93.8	13.2	29.8	43.9	> 100	47.6	> 100	14.7	28	40.9	79.2	> 100	21.5
NC(CCSCCF)C(=O)O (centres undefined)						> 100						> 100			> 100		> 100	
C=CC(=O)OCCCS(=O)(=O)[O-].C=CC(=O)OCCCS(=O)(=O)[O-].NC1CCCCC1N.[Pt+4]	> 25	> 25	> 25	> 25					> 25	> 25	> 25	> 25	> 25	> 25	> 25	> 25	> 25	> 25
COc1ccc(C2C(C(=O)O)=C(CO)Oc3cc4c(cc32)OCO4)c(OC)c1 (centres undefined)		> 100		> 100		> 100						> 100		> 100	> 100			
O=C(CC(=O)c1cccc2ccccc12)C(=O)Nc1nccs1		> 100		> 100		> 100				> 100		> 100		> 100	> 100		> 100	
CCOC(=O)C1=C(Nc2cccc3ccccc23)OCC1=O		> 100		> 100		> 100				> 100		> 100		> 100	> 100		> 100	
C#CCOCn1cnc2c(N)ncnc21		> 100		> 100		> 100				> 100		> 100		> 100	> 100		> 100	
O=c1c2cc(Br)ccc2n(C2OC(CO)C(O)C(O)C2O)c(=S)n1-c1ccccc1 (centres undefined)		> 100		> 100		> 100				> 100					> 100		> 100	
CC1=CC[C@@H]2C(=O)C=CC=C[C@H]12.[C-]#[O+].[C-]#[O+].[C-]#[O+].[Fe]	> 100	> 100	43.9	> 100					> 100	> 100	> 100	> 100	> 100	> 100	> 100	> 100	> 100	> 100
Cc1c(-c2cc(-c3ccccc3)n[nH]c2=O)c2ccccc2n1C		> 100		> 100		> 100				> 100		> 100		> 100	> 100		> 100	
CC(C)=CC1(C)/C(=N\O)C(C)(CC(C)C)C(=O)N1O (centres undefined)		> 100		> 100		> 100				> 100		> 100		> 100	> 100		> 100	
CCCCCCCCCCCc1cc(=O)c2c(O)cccc2o1		> 100		> 100		> 100				> 100		> 100		> 100	> 100			
COc1ccccc1NC(=O)C1=C(C)NC(C)=C(C(=O)Nc2ccccc2OC)C1c1ccc(C2C(C(=O)Nc3ccccc3OC)=C(C)NC(C)=C2C(=O)Nc2ccccc2OC)cc1		7.94		25		9.45				3.56		26		8.14	3.24		15.5	
